Test [1] deals with Pyricularia oryzae (rice blast). In words: whole plant or invertebrate. In kind it is in vivo. The following applies: foliar, read-out: RICE BLAST control rating.
For test [2], the system named is Puccinia recondita tritici (leaf rust). In words: Plant pathology screen (Test 1), leaf rust on wheat. The following applies: in Triticum aestivum, foliar, read-out: LEAF RUST control rating.
The test system of test [3] is Pseudoperonospora cubensis (downy mildew). Briefly: Plant pathology screen (Test 1), downy mildew on squash. The following applies: foliar, read-out: DOWN MDEW control rating.
Method: (§1) The test compounds were formulated for application by dissolving 50 mg of the compound into 1.25 ml of solvent. The solvent was prepared by mixing 50 ml of "Tween 20" (polyoxyethylene (20) sorbitan monolaurate emulsifier) with 475 ml of acetone and 475 ml of ethanol. The solvent/compound solution was diluted to 125 ml with deionized water. The resulting formulation contains 400 ppm test chemical. Lower concentrations were obtained by serial dilution with the solvent-surfactant mixture.
(§2) The formulated test compounds were applied by foliar spray. The following plant pathogens and their corresponding plants were employed.
(§3) The formulated technical compounds were sprayed on all foliar surfaces of the host plants (or cut berry) to past run-off. Single pots of each host plant were placed on raised, revolving pedestals in a fume hood. Test solutions were sprayed on all foliar surfaces. All treatments were allowed to dry and the plants were inoculated with the appropriate pathogens within 2-4 hours.
(§4) The effectiveness of test compounds in controlling disease was rated using the following scale.
The subject of test [4] is southern armyworm (Spodopetra eridania Cramer). In words: Mite/insect screen, Southern armyworm. Format: in vivo. The following applies: Spodoptera eridania, sprayed leaves, read-out: SAW results (percent mortality); for mortality at 200 ppm: rate 200 ppm; for mortality at 400 ppm: rate 400 ppm. A digest of the protocol: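 Southern armyworm larvae placed in Petri dishes with two excised squash leaves that had been sprayed to runoff (10 psi) with emulsified compound and air-dried for 1 h. Mortality in percent recorded after a standard exposure period; formulation acetone/alcohol plus Toximul R and S, water-diluted.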

In test [5] the test system is melon aphids (Aphis gossvpii Glover). In words: Mite/insect screen, melon aphids. Format: in vivo. As to conditions: Aphis, sprayed leaves, read-out: MA results (percent mortality); for mortality at 200 ppm: rate 200 ppm; for mortality at 400 ppm: rate 400 ppm. In short, it runs like this:
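Percent mortality of melon aphids was assessed after standard exposure periods. Infested squash cotyledons had been sprayed on both leaf surfaces until runoff at 10 psi with water-diluted test solutions. Compounds were formulated in acetone/alcohol (50:50) containing emulsifiers.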

In test [6] the test system is Southern corn rootworm (Diabrotica undecimpuctata howardi Barber). Briefly: Mite/insect screen, corn rootworm. Format: in vivo. The following applies: Diabrotica, soil, read-out: CRW results (percent mortality); for mortality at 12 ppm: CRW rate 12.00 ppm; for mortality at 24 ppm: CRW rate 24.00 ppm. In short, it runs like this:
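Five 2-3 instar larvae per cup were placed on sandy soil (15 g, with presoaked corn seed) treated 6–12 h earlier with 1 mL test solution, an emulsified acetone/alcohol formulation diluted in water. Cups kept at 23° C; mortality and phytotoxicity assessed as percent after standard exposures.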

The test system of test [7] is Erysiphe graminis tritici (powdery mildew). Briefly: Plant pathology screen (Test 1), powdery mildew on wheat. As to conditions: Blumeria graminis, in Triticum aestivum, foliar, read-out: POWD MDEW control rating.
The subject of test [8] is Twospotted spider mites (Tetranychus urticae Koch). In words: Mite/insect screen, twospotted spider mites. Format: in vivo. The following applies: Tetranychus urticae, sprayed leaves, read-out: SM results (percent mortality); for mortality at 200 ppm: rate 200 ppm; for mortality at 400 ppm: rate 400 ppm. In short, it runs like this: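 Percent mortality, along with phytotoxicity, was read after standard exposure periods. Beforehand, mites established on both surfaces of squash cotyledons received a runoff spray (10 psi) of water-diluted compound formulated in acetone/alcohol with sulfonate/nonionic emulsifiers.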

For test [9], the system named is Botrytis cinerea (gray mold). Briefly: Plant pathology screen (Test 1), gray mold on grape berries. As to conditions: read-out: GRAY MOLD control rating.
Method: This screen was used to evaluate the efficacy of the present compounds against a variety of different organisms that cause plant diseases.
as §1, §2, §3, §4

Structures are written as SMILES.

For the compound `Cc1cc2c(OCCC34CC5CC(CC(C5)C3)C4)ncnc2o1` [Example 38, 6-methyl-4-[2-(1-adamantyl)ethoxy]furo[2,3-d]pyrimidine], the pest or weed control at 400 µg/mL in [1], in test [2], in test [3], in test [7] and in test [9] was 0 to 19% each time. Also, the mortality at 200 ppm in test [4], in [5] and in test [8] was 0% throughout. The mortality at 400 ppm in [4], in [5] and in [8] was 0% in each case. Further, the mortality (as a rule, the share of the test organisms that died) at 12 ppm in [6] stood at 0%. The mortality at 24 ppm in [6] came to 0%.

`Cc1cc2c(OCCc3ccc(OCc4ccccc4)cc3)ncnc2o1` [Example 39, 6-methyl-4-[2-[4-(phenylmethoxy)phenyl]ethoxy]furo[2,3-d]pyrimidine]: the pest or weed control at 400 µg/mL in [1] lay in the range of 0 to 19%; in test [2], 90 to 100%; in test [3], 0 to 19%; in test [7], 0 to 19%; in test [9] it was 0 to 19%. Besides, the mortality at 200 ppm in test [4], in test [5] and in [8] was 0% in each case. The mortality at 400 ppm was found to be 0% in test [4], 10% in [5] and 0% in test [8]. Further, in [6], the mortality at 12 ppm was determined as 0%. Also, the mortality at 24 ppm in test [6] came out at 0%.

For the compound `COc1ccc(CCOc2ncnc3oc(C)cc23)cc1` [Example 40, 6-methyl-4-[2-(4-methoxyphenyl)ethoxy]furo[2,3-d]pyrimidine], the pest or weed control at 400 µg/mL in [1] lay within 0 to 19%; in test [2], 90 to 100%; in test [3], 90 to 100%; in test [7], 20 to 89%; in [9], 0 to 19%. Also, the mortality at 200 ppm in test [4], in test [5] and in test [8] was 0% in each case. Further, the mortality at 400 ppm in test [4] stood at 0%; in test [5], 80%; in test [8], 20%. In [6], the mortality at 12 ppm was found to be 0%. Moreover, in test [6], the mortality at 24 ppm was 0%.

Take `Cc1oc2ncnc(OCCc3ccc(Oc4ccc(C(F)(F)F)cc4)cc3)c2c1C` [Example 41, 5,6-dimethyl-4-[2-[4-[4-(trifluoromethyl)phenoxy]phenyl]ethoxy]furo[2,3-d]pyrimidine]: the pest or weed control at 400 µg/mL in test [1] fell in the range of 20 to 89%; in [2] it was 90 to 100%; in test [3], 90 to 100%; in [7], 90 to 100%; in [9], 0 to 19%. Besides, the mortality at 200 ppm in [4], in test [5] and in [8] was 0% in each case. Further, the mortality at 400 ppm in test [4] was 0%; in test [5], 100%; in test [8], 100%. In addition, the mortality at 12 ppm in test [6] stood at 0%. Moreover, in [6], the mortality at 24 ppm was found to be 60%.

For `Cc1cc2c(OCCc3ccc(C(F)(F)F)cc3)ncnc2o1` [Example 42, 6-methyl-4-[2-[4-(trifluoromethyl)phenyl]ethoxy]furo[2,3-d]pyrimidine], the pest or weed control at 400 µg/mL was in the range of 20 to 89% in test [1]; 90 to 100% in [2]; 90 to 100% in test [3]; 20 to 89% in test [7]; 0 to 19% in test [9]. Further, the mortality at 200 ppm in test [4] was determined as 0%; in test [5] it was 100%; in [8], 0%. Further, the mortality at 400 ppm is 0% in [4], 100% in [5] and 100% in test [8]. The mortality at 12 ppm in test [6] worked out at 0%. Besides, the mortality at 24 ppm in test [6] stood at 0%.

`Cc1cc2c(OCCc3ccc(OC(C)(C)C)cc3)ncnc2o1` [Example 43, 6-methyl-4-[2-[4-(t-butoxy)phenyl]ethoxy]furo[2,3-d]pyrimidine]: the pest or weed control at 400 µg/mL lay in the range of 20 to 89% in [1]; 90 to 100% in test [2]; 90 to 100% in [3]; 90 to 100% in [7]; 0 to 19% in test [9]. For the same compound, the mortality at 200 ppm in test [4] came to 0%; in [5], 90%; in test [8], 90%. In addition, the mortality at 400 ppm stood at 0% in test [4], 80% in test [5] and 80% in test [8]. Also, the mortality at 12 ppm in [6] was found to be 0%. The mortality at 24 ppm in [6] was determined as 0%.

`CCCCOc1ccc(CCOc2ncnc3oc(C)cc23)cc1` [Example 44, 4-[4-(4-butoxyphenyl)ethoxy]-6-methylfuro[2,3-d]pyrimidine]: the pest or weed control at 400 µg/mL in test [1] lay in the range of 0 to 19%; in test [2], 90 to 100%; in [3], 20 to 89%; in test [7], 0 to 19%; in test [9] it was 0 to 19%. For the same compound, the mortality at 400 ppm in test [4], in test [5] and in test [8] was 0% each time. Also, in test [6], the mortality at 24 ppm was determined as 0%.

In the case of `CCCCOc1ccc(CCOc2ncnc3oc(C)c(C)c23)cc1` [Example 45, 5,6-dimethyl-4-[2-[4-(n-butoxy)phenyl]ethoxy]furo[2,3-d]pyrimidine], the pest or weed control at 400 µg/mL in test [1] lay within 0 to 19%; in test [2], 90 to 100%; in test [3] it was 20 to 89%; in test [7], 20 to 89%; in [9], 0 to 19%. For the same compound, the mortality at 200 ppm in test [4] is 0%; in test [5] it was 90%; in [8], 90%. Besides, the mortality at 400 ppm in test [4] worked out at 0%; in test [5] it was 90%; in test [8], 100%. Besides, the mortality at 12 ppm in test [6] came out at 0%. Also, in [6], the mortality at 24 ppm was determined as 0%.

On to `Cc1cc2c(OCCc3ccc(C(C)(C)C)cc3)ncnc2o1` [Example 46, 4-[2-[4-(1,1-dimethylethyl)phenyl]ethoxy]-6-methylfuro[2,3-d]pyrimidine], for which the pest or weed control at 400 µg/mL in test [1], in [2], in test [3], in [7] and in test [9] was 0 to 19% in each case. Besides, the mortality at 200 ppm came out at 0% in [4], 90% in test [5] and 80% in [8]. Besides, the results for the mortality at 400 ppm in [4], in test [5] and in test [8] were 0%, 60% and 80%, respectively. Besides, the mortality at 12 ppm in [6] came to 0%. Also, the mortality at 24 ppm in test [6] came out at 0%.

As for `Cc1oc2ncnc(NCCc3ccc(OC(F)(F)C(F)F)cc3)c2c1C` [Example 47, N-[2-[4-(1,1,2,2-tetrafluoroethoxy)phenyl]ethyl]-5,6-dimethylfuro[2,3-d]pyrimidin-4-amine], the pest or weed control at 400 µg/mL lay within 90 to 100% in test [1]; 90 to 100% in [2]; 90 to 100% in test [3]; 20 to 89% in [7]; 0 to 19% in test [9]. Besides, the figures for the mortality at 200 ppm in test [4], in test [5] and in test [8] were 100%, 100% and 90%, respectively. Besides, the results for the mortality at 400 ppm in test [4], in [5] and in [8] were 0%, 100% and 100%, respectively. In addition, the mortality at 12 ppm in test [6] was found to be 100%. Further, the mortality at 24 ppm in test [6] worked out at 80%.

`Cc1ccc(CCNc2ncnc3occ(C)c23)cc1` [Example 48, 5-methyl-N-[2-(4-methylphenyl)ethyl]furo[2,3-d]pyrimidin-4-amine]: the pest or weed control at 400 µg/mL in test [1] is 90 to 100%; in [2] it was 90 to 100%; in [3] it was 90 to 100%; in test [7] it was 90 to 100%; in [9] it was 0 to 19%. Also, the mortality at 200 ppm in test [4], in test [5] and in test [8] was 0% in each case. Moreover, the mortality at 400 ppm amounted to 0% in test [4], 80% in test [5] and 0% in test [8]. Also, in test [6], the mortality at 12 ppm worked out at 60%. The mortality at 24 ppm in test [6] is 100%.

(Values after patent US5486516A, “Furopyrimidine derivatives” (DowElanco, priority 1993, dated 1996).)
